Tests used:
[1] = accumulation of cells at G1/S or G2/M, reference (31); cited from earlier work
[2] = test system: mES cells; test: Cell cycle arrest and cell cycle structure by flow cytometry of PI-stained mES cells; type: cell-based, murine; conditions: up to concentrations of 140 μM
Experimental: Cdk2 activity levels determine the rate of mES cell division but not cell cycle structure. (A) mES cells were grown for up to 8 passages in the presence (+) or absence (−) of Ro09-3033 (2 μM). Cdk2, cyclin E and cyclin B-associated H1 kinase activities were assayed as described previously after immunoprecipitation from whole cell lysates (100 μg protein). Input loading control was determined by probing immunoblots (15 μg lysate protein) with α-Cdk2 and α-Oct4 polyclonal antibodies. Quantitation of H1 kinase activities are shown in the lower panel as the average of two independent experiments. (B) Northern blot analysis of Oct4, Rex-1 and GAPDH transcripts from mES cells grown with (+) or without (−) inhibitor (2 μM) for the number of passages indicated. RNA was resolved by agarose gel electrophoresis, blotted and hybridized with [^32P]-labelled Oct4, Rex-1 and GAPDH probes (15 μg total RNA per lane). […] (C) After 8 passages in the presence (+) or absence (−) of 2 μM Ro09-3033, mES and mEPL cells were fixed and stained with PI and analysed by flow cytometry. […] Generation times of mEPL cells were not determined in this experiment.
In preparation for flow cytometry, cells were resuspended in 300 μl of PBS supplemented with 1% FCS. […] Cells were stained by the addition of 2.5 mg/ml propidium iodide (Sigma) and 0.5 mg/ml RNAase A and analysed on a Beckman-Coulter flow cytometer with WinMDi software.

For `CC[C@H](CO)Nc1nc(NCc2ccccc2)c2ncn(C(C)C)c2n1` [roscovitine], the “Concentration range in which it typically acts as a cell cycle specific inhibitor” value [1] is given as 20 to 30 µM and the “Effect on cell division times or cell cycle structure in mES cells” value [2] is given as “no effect”.
